Assay results taken from patent US10265298B2, “Method of increasing the bioavailability of silybin” (Macau University of Science and Technology, priority 2017, dated 2019).

How the values were obtained:
[1] = tested on: Caco-2 cells; experiment: Glucuronidation of silybin in Caco-2 cells (LC-MS peak area of silybin glucuronides); type: in vitro ADME, human; conditions: silybin 10 μM, test compound 20 μM co-incubation; for inhibition at 20 µM: Homo sapiens, Caco-2, read-out: inhibition on the glucuronide conjugation of silybin
Experimental: The analysis of silybin and total concentrations of glucuronides and sulfates was performed on an Agilent HP 1100 LC-MS system (Agilent, CA). A Waters ACQUITY UPLC® BEH C18 Column (1.7 μm, 2.1×50 mm, Waters Corp., Ireland) was used for detection with a C18 Security Guard cartridge (4×2.0 mm i.d., Phenomenex, Torrance, Calif.). Silybin A and silybin B were well separated using optimized gradient elution with methanol (mobile phase B) and 0.1% formic acid in water (mobile phase A) as mobile phase at a flow rate of 0.4 ml/min with a run time of 10 minutes. The gradient employed was as follows (time: mobile phase B percentage): 0 min: 25%, 6 minutes: 40%, 6.5 minutes: 25%.
MS parameters including: capillary voltage, −4000 V; nebulizer pressure, 40 pounds per square inch (psi); drying gas, 9 liters per minute (L/min); drying gas temperature, 325° C.; fragment voltage, 35 volts; dwell time, 200 milliseconds (ms); scan mode, selective ion monitoring (SIM) with [M-H]− for silybin (mass-to-charge ratio (m/z) 481), mono-glucuronide (m/z 657), and NG (m/z 271), respectively. LC-MS data were obtained by Agilent ChemStation Software.
Silybin is primarily metabolized to glucuronide (about 55%) and sulfate (about 28%) conjugates in human plasma after oral administration. To examine whether the co-incubation of flavonoids could affect the conjugation of silybin, the peak area of silybin glucuronides was measured by LC-MS (FIG. 6). Identification of glucuronides in the samples was based on their MS in-source fragmentations (m/z 657).

[2] = tested on: Caco-2 cell monolayers; experiment: Bidirectional transport across Caco-2 cell monolayers; conditions: Ko143 at 0.5 μM (BCRP inhibitor); quinidine at 20 μM (P-gp inhibitor)
Experimental: (§1) Human colorectal adenocarcinoma-2 (Caco-2) cells was obtained from American Type Culture Collection (Manassas, Va.) and frozen at −80° C. For transport study, cells were cultured at 37° C./5% CO2 in Dulbecco's modified Eagle's medium supplemented with 10% fetal bovine serum, 1% nonessential amino acids, and 1% penicillin-streptomycin. […] The culture medium was changed 24 hours after seeding to remove cell debris and dead cells; after which the medium was changed on alternate days. Monolayers were used for transport assays between 21 and 23 days for Caco-2 cells. Prior to transport study, cell monolayers were certified based on internal criteria on transepithelial electrical resistance (TEER) values.
(§2) Prior to transport study, cell monolayers were certified based on our internal criteria on transepithelial electrical resistance (TEER) values, and only monolayers that met the acceptance criteria (transepithelial electrical resistance >500 Ω·cm^2 for Caco-2 cells and >200 Ω·cm^2 for MDCK cells) were selected for transport studies.
(§3) Bidirectional transport assays in human colorectal adenocarcinoma 2 (Caco-2) and Madin-Darby canine kidney II (MDCK II) was carried out by dosing substrates in assay buffer to either the apical chamber (A-to-B) or the basolateral chamber (B-to-A); cells were then incubated at 37° C. with shaking at 50 rotations per minute (rpm), and 100 μl samples were collected at 30, 60, 90, 120 and 180 minutes from the basolateral chamber to study the drug transport of AP to BL, or apical chamber to study the drug transport of BL to AP. Cell monolayers were then washed twice with ice-cold assay buffer and lysed with methanol on ice for 10 minutes. For inhibition studies, Caco-2 or MDCK II cell monolayers were pre-incubated with an inhibitor in both apical and basolateral chambers for 30 minutes, and bidirectional transport of 10 μM silybin was conducted in the absence (control) or presence of the inhibitor in both chambers. […] For fluorescence intensity detection, samples collected from AP or BL side were immediately detected in 96 well black plate by Microplate ultraviolet-visible spectroscopy (UV/VIS) spectrophotometer (TECAN infinite M200 PRO, Männedorf, Switzerland). In all cases, each determination was performed in triplicate.
(§4) The apparent permeability coefficients (Papp) were calculated as Papp=dQ/dt×1/(C“0”A) where dQ/dt (mM/sec) is the rate of permeation of the drug across the cells, C0 (millimolar (mM)) is the donor compartment concentration at time zero and A (cm^2) is the area of the cell monolayer. C0 is obtained from analysis of the dosing solution at the start experiment. Efflux Ratio (ER)=Papp (B to A)/Papp (A to B), while Papp (B−A) is the Papp value measured in the B to A direction, and Papp (A−B) is the Papp value measured in the A to B direction. 1.5 Preparation of Rat Sandwich-Cultured Hepatocytes

[3] = target: MRP2 (Homo sapiens, UniProt Q92887); experiment: cell-based; conditions: dog, 180 min
Sequence of MRP2 (Q92887 whole entry): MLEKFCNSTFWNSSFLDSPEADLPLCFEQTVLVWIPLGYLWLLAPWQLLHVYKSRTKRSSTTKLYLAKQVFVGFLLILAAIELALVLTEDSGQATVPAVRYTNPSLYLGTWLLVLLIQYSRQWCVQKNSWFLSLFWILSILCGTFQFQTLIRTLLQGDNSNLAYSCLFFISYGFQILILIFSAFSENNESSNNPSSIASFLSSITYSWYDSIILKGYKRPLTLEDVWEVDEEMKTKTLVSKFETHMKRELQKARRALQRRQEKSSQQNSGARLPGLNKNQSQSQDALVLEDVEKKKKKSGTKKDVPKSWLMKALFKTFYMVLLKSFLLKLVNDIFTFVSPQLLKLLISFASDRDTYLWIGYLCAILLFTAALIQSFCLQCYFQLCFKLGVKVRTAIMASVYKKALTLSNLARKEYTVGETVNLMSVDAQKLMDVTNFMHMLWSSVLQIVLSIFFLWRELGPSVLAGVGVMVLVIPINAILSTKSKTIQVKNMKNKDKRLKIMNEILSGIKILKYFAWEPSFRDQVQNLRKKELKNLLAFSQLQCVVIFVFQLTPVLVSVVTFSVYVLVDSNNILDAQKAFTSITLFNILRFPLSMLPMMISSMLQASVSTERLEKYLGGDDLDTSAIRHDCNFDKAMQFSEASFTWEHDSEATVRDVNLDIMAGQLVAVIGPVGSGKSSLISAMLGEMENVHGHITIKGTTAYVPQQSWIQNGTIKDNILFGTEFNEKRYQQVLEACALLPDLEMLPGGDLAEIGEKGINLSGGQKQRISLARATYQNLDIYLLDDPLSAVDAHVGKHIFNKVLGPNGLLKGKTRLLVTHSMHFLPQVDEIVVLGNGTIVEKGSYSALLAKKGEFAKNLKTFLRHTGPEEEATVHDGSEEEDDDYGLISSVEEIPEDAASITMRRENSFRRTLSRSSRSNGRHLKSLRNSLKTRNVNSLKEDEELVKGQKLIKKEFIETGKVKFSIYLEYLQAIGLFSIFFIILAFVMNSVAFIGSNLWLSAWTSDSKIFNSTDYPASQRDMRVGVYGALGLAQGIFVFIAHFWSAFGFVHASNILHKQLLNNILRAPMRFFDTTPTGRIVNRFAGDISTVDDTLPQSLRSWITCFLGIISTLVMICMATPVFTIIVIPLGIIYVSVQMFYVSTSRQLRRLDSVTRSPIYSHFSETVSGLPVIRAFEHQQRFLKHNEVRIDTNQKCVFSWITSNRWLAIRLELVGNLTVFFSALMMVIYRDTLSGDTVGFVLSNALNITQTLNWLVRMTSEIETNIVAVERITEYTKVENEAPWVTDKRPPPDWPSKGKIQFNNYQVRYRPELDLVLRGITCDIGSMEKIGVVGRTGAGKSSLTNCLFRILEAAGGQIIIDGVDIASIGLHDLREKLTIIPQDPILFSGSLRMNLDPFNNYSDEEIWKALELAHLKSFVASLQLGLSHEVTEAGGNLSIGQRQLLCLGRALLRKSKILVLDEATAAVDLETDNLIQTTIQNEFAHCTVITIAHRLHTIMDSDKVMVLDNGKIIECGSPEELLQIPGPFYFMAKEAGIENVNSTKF
Experimental: (§5) Parental Madin-Darby canine kidney II (MDCKII), multi-drug resistance gene 1-Madin-Darby canine kidney II (MDR1-MDCKII), breast cancer resistance protein-Madin-Darby canine kidney II (BCRP-MDCKII), and multi-drug resistance protein 2-Madin-Darby canine kidney II (MRP2-MDCKII) cells were kindly provided by the Netherlands Cancer Institute (Amsterdam, Netherlands) and frozen at −80° C. The MDCKII cells were cultured at 37° C./5% CO2 in Dulbecco's modified Eagle's medium supplemented with 10% fetal bovine serum, 1% nonessential amino acids, and 2% penicillin-streptomycin. The cells were seeded on transwell inserts (Corning Inc.) at a density of 2.0×10^5 cells/cm^2 and grown for 4-5 days to form confluent monolayers.
as §3, §4
(§6) (*, P<0.05;**, P<0.01; ***, P<0.001 vs absence of any inhibitor. n=3).
as §6

[4] = in vitro; type: in vitro ADME, rat; conditions: male, Sprague Dawley, rat
Experimental: Sandwich-cultured rat hepatocytes (SCHs) were established according to previously described methods with minor modifications. Primary rat hepatocytes were isolated from male Sprague Dawley® (SD) rats (220-270 g) using a collagenase perfusion as described previously and plated at a density of 7.4×10^5 cells/2 ml/well onto six-well BioCoat plates. Approximately 24 hours later, hepatocytes were overlaid with 2 ml of 0.25 mg/ml BD Matrigel basement membrane matrix in Dulbecco's modified Eagle medium (DMEM) containing 1% volume by volume percentage (v/v) insulin/transferrin/selenium culture supplement, […] dexamethasone, 2 mM L-glutamine, 1% (v/v) minimum essential medium nonessential amino acids, 1% penicillin-streptomycin. Hepatocytes were cultured for 4 days to allow extensive formation of canalicular networks between cells before experimentation and the medium was changed daily.
Sandwich-cultured hepatocytes (SCHs) were pre-incubated in 2 milliliters (ml) of warm Hank's Balanced Salt Solution (HBSS) with or without Ca^2+ at 37° C. for 15 minutes; the tight junctions of the bile canaliculi open temporally after exposure to HBSS without Ca^2+. Subsequently, cells were incubated at 37° C. for 20 minutes with 1.5 ml of standard HBSS containing silybin (10 μM), or MK 571 (50 μM) as a positive control, or baicalein (25, 15.8, 5, 1.58, 0.5, 0.16 μM), or tangeretin (25, 15.8, 5, 1.58, 0.5 μM). After 20 min, cells were washed three times with ice-cold standard HBSS. The cell samples were lysed by sonication in 1 ml of water for 5 seconds with the ultrasonic cell disruption system (SONICS & […], INC., Newtown, Conn., USA). Conjugated silybin and unconjugated (free) silybin were quantified by high-performance liquid chromatography-tandem mass spectrometry (HPLC-MS/MS). Transport function was normalized to the protein content of the hepatocytes which was evaluated by bicinchoninic acid (BCA) protein assay (Pierce Chemical, Rockford, Ill.). The biliary excretion index (BEI; %) and in vitro biliary clearance (Clbiliary; ml/min/kg) were calculated by using B-CLEAR technology (Qualyst, Inc., Research Triangle Park, N.C.) based on the following equations: […]

[5] = Bidirectional transport across Caco-2 cell monolayers; conditions: human, Caco-2
Experimental: as §1, §2, §3, §4

[6] = target: T1, BCRP (Homo sapiens, UniProt Q9UNQ0); experiment: Inhibition of pheophorbide A (Ph A) efflux in MDCKII-BCRP cell monolayers
T1 sequence (Q9UNQ0 1-655): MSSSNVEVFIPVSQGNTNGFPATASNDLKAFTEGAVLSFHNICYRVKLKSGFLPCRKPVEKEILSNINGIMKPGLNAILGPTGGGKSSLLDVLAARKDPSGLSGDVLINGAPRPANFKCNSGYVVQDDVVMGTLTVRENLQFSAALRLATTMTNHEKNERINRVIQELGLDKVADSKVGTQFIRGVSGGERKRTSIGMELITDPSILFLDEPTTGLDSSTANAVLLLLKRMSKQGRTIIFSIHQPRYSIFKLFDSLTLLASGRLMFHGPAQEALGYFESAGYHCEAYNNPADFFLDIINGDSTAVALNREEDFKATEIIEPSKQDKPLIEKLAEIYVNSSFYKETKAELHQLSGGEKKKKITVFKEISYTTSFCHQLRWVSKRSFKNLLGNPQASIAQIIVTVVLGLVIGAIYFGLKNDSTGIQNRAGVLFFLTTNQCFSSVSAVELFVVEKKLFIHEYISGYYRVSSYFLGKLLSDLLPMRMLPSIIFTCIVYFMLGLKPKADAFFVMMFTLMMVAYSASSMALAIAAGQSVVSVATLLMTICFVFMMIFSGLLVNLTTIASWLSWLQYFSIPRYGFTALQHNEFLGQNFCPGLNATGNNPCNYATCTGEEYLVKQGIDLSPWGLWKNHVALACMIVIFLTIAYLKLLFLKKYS
Experimental: as §5, §3, §4, §6, §6

Row | Molecule | effect on glucuronide metabolites / glucuronide conjugation of silybin [1] | inhibition at 20 µM [1] [%] | further results
1 | O=C(O[C@@H]1Cc2c(O)cc(O)cc2O[C@@H]1c1ccc(O)c(O)c1)c1cc(O)c(O)c(O)c1 [(−)-ECG] | did not significantly inhibit the conjugation |  | 
2 | COc1ccc2c3c([nH]c2c1)[C@H](CC(C)C)N1C(=O)[C@H](CCC(=O)OC(C)(C)C)NC(=O)[C@@H]1C3 [Ko143, (3S,6S,12aS)-1,2,3,4,6,7,12,12a-octahydro-9-methoxy-6-(2-methylpropyl)-1,4-dioxo-pyrazino[1′,2′:1,6]pyrido[3,4-b]indole-3-propanoic acid 1,1-dimethylethyl ester] |  |  | effect of efflux transporter inhibitor on efflux/absorption of silybin [2]: inhibited the efflux ratio of silybin
3 | CN(C)C(=O)CCSC(SCCC(=O)[O-])c1cccc(/C=C/c2ccc3ccc(Cl)cc3n2)c1.[Na+] (centres unmarked) [MK571, (E)-3-[[[3-[2-(7-chloro-2-quinolinyl)ethenyl]phenyl][[3-(dimethylamino)-3-oxopropyl]thio]methyl]thio]-propanoic acid, sodium salt] | almost undetected |  | efflux ratio of CDCFDA in the presence of inhibitor [3]: 1.11; inhibition at 20 min, 50 μM [4]: 100%
4 | O=C(O)[C@H]1O[C@@H](Oc2cc3oc(-c4ccccc4)cc(=O)c3c(O)c2O)[C@H](O)[C@@H](O)[C@@H]1O [baicalin] |  | > 50 | 
5 | COc1ccc2c(c[n+](C)c3c4cc5c(cc4ccc23)OCO5)c1OC [chelerythrine] | did not significantly inhibit the conjugation |  | 
6 | O=c1cc(-c2ccccc2)oc2cc(O)cc(O)c12 [chrysin] |  | > 50 | 
7 | COc1cc(/C=C/C(=O)CC(=O)/C=C/c2ccc(O)c(OC)c2)ccc1O [curcumin] |  | > 50 | 
8 | O=C1c2c(O)cc(O)cc2O[C@H](c2cc(O)c(O)c(O)c2)[C@H]1O [dihydromyricetin] |  | > 50 | 
9 | COc1ccc(-c2cc(=O)c3c(O)cc(O)cc3o2)cc1O [diosmetin] | almost undetected |  | 
10 | O=c1c(O)c(-c2ccc(O)c(O)c2)oc2cc(O)ccc12 [fisetin] |  | > 50 | 
11 | O=c1c(O)c(-c2ccccc2)oc2cc(O)cc(O)c12 [galangin] | almost undetected |  | 
12 | O=c1c(-c2ccc(O)cc2)coc2cc(O)cc(O)c12 [genistein] |  |  | Papp at 180 min [5]: 13 ×10⁻⁶ cm/s
13 | COc1ccc([C@@H]2CC(=O)c3c(O)cc(O[C@@H]4O[C@H](CO[C@@H]5O[C@@H](C)[C@H](O)[C@@H](O)[C@H]5O)[C@@H](O)[C@H](O)[C@H]4O)cc3O2)cc1O [hesperidin] | did not significantly inhibit the conjugation |  | 
14 | COc1cc(-c2oc3cc(O)cc(O)c3c(=O)c2O)ccc1O [isorhamnetin] |  | > 50 | 
15 | COc1ccc(-c2oc3cc(O)cc(O)c3c(=O)c2O)cc1 [kaempferide] |  | > 50 | 
16 | O=c1c(O)c(-c2ccc(O)cc2)oc2cc(O)cc(O)c12 [kaempferol] |  | > 50 | 
17 | O=c1cc(-c2ccc(O)c(O)c2)oc2cc(O)cc(O)c12 [luteolin] | almost undetected |  | 
18 | O=c1c(O)c(-c2ccc(O)cc2O)oc2cc(O)cc(O)c12 [morin] | almost undetected |  | 
19 | O=c1c(O)c(-c2ccc(O)c(O)c2)oc2cc(O)cc(O)c12 [quercetin] |  | > 50 | 
20 | Oc1ccc(C=Cc2cc(O)cc(O)c2)cc1 [resveratrol] | almost undetected |  | 
21 | pheophorbide A [Ph A] |  |  | mean efflux ratio of pheophorbide A (Ph A) [6]: 2.82
